What follows are molecules tested against T1, FLT3 D835V (Homo sapiens, UniProt P36888, D835V) (assay: DiscoverX KINOMEscan competition binding, FLT3 D835V).
T1 construct: host or cells: E. coli BL21-derived host (T7 phage) or HEK-293
T1 sequence (P36888 27-993 D835V): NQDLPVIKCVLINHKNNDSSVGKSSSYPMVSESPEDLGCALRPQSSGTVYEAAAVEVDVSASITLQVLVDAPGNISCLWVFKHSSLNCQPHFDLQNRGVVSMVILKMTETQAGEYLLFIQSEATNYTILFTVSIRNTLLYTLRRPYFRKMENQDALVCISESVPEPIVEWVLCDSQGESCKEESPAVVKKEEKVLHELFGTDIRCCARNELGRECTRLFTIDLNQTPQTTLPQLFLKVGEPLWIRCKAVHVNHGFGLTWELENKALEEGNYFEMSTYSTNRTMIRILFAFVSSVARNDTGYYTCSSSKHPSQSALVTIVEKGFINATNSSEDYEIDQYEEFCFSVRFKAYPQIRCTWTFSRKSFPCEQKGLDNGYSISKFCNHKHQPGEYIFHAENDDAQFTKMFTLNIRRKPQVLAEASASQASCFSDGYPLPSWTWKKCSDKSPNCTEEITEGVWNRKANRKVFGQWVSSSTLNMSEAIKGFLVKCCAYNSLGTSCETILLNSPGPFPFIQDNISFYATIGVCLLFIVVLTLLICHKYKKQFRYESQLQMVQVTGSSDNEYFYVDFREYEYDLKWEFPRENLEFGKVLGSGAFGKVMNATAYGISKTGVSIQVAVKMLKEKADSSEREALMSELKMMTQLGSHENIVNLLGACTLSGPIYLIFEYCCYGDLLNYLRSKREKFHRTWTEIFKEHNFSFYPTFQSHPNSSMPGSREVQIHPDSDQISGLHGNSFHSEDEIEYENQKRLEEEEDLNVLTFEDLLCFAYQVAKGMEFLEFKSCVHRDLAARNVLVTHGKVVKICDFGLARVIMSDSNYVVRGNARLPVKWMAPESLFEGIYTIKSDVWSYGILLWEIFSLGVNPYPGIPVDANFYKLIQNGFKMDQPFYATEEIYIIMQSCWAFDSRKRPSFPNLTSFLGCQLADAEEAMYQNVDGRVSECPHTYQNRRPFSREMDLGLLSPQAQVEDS
Source text: Kinase binding data were obtained for various exemplary compounds prepared according to Examples 1-24 using the DiscoverX KINOMVIEscan® active site-directed competition binding site-directed assay protocol described below. […] As a result, the data report thermodynamic interaction affinities (Kd values), rather than IC50 values that are dependent on ATP concentrations. The assay uses a DNA-tagged version of the protein kinase, and an immobilized ligand bound to a solid support. Compounds that directly or indirectly prevent kinase binding to the immobilized ligand reduce the amount of kinase captured on the solid support, which is detected using an ultra-sensitive qPCR method. Affinity constants reported from the assay have been reported to be independent of the immobilized ligand used that is coupled to the solid support (See supplemental information in Fabian, M. A. et. al., (2005) Nat. Biotechnol. 23, 329-336; Wodicka, L. M. et. al., (2010) Chem. Biol. 17, 1241-1249.)
Kinase-tagged T7 phage strains were prepared in an E. coli host derived from the BL21 strain. E. coli were grown to log-phase and infected with T7 phage and incubated with shaking at 32° C. until lysis. The lysates were centrifuged and filtered to remove cell debris. The remaining kinases were produced in HEK-293 cells and subsequently tagged with DNA for qPCR detection. Streptavidin-coated magnetic beads were treated with biotinylated small molecule ligands for 30 minutes at room temperature to generate affinity resins for kinase assays. The liganded beads were blocked with excess biotin and washed with blocking buffer (SeaBlock (Pierce), 1% BSA, 0.05% Tween 20, 1 mM DTT) to remove unbound ligand and to reduce non-specific binding. Binding reactions were assembled by combining kinases, liganded affinity beads, and test compounds in 1× binding buffer (20% SeaBlock, 0.17×PBS, 0.05% Tween 20, 6 mM DTT). Test compounds were prepared as 111× stocks in 100% DMSO. Kds were determined using an 11-point 3-fold compound dilution series with three DMSO control points. All compounds for Kd measurements are distributed by acoustic transfer (non-contact dispensing) in 100% DMSO. The compounds were then diluted directly into the assays such that the final concentration of DMSO was 0.9%. All reactions were performed in polypropylene 384-well plates. Each was a final volume of 0.02 mL. The assay plates were incubated at room temperature with shaking for 1 hour and the affinity beads were washed with wash buffer (1×PBS, 0.05% Tween 20). The beads were then re-suspended in elution buffer (1×PBS, 0.05% Tween 20, 0.5 μM nonbiotinylated affinity ligand) and incubated at room temperature with shaking for 30 minutes. The kinase concentration in the eluates was measured by qPCR.
Binding constants (Kds) were calculated with a standard dose-response curve using the Hill equation. The Hill Slope was set to −1. Curves were fitted using a non-linear least square fit with the Levenberg-Marquardt algorithm.

Compared with `CC1(c2cn3c(-c4cccc(N[C@H]5CNC[C@@H]5F)n4)cnc3cn2)CC1` [Compound 1, N-((3S,4S)-4-fluoropyrrolidin-3-yl)-6-(6-(1-methylcyclopropyl)imidazo[1,2-a]pyrazin-3-yl)pyridin-2-amine], `CC1(c2cn3c(-c4cccc(N[C@@H]5CCNC5)n4)cnc3cn2)CC1` [Compound 3, (R)-6-(6-(1-methylcyclopropyl)imidazo[1,2-a]pyrazin-3-yl)-N-(pyrrolidin-3-yl)pyridin-2-amine] is 1.5-fold higher in Kd: 0.015 nM for the first, 0.023 nM for the second.

Compared with `CC1(c2cn3c(-c4cccc(N[C@H]5CNCC56CC6)n4)cnc3cn2)CC1` [Compound 5, (R)-N-(6-(6-(1-methylcyclopropyl)imidazo[1,2-a]pyrazin-3-yl)pyridin-2-yl)-5-azaspiro[2.4]heptan-7-amine], `FC(F)(F)C1(c2cn3c(-c4cccc(N[C@@H]5CCNC5)n4)cnc3cn2)CC1` [Compound 10, (R)-N-(pyrrolidin-3-yl)-6-(6-(1-(trifluoromethyl)cyclopropyl)imidazo[1,2-a]pyrazin-3-yl)pyridin-2-amine] is 6.4-fold higher in Kd: 0.013 nM for the first, 0.083 nM for the second. The first binds more tightly here.

First: FC(F)c1cn2c(-c3cccc(N[C@H]4CNC[C@@H]4F)n3)cnc2cn1 [Compound 16, 6-(6-(difluoromethyl)imidazo[1,2-a]pyrazin-3-yl)-N-((3S,4S)-4-fluoropyrrolidin-3-yl)pyridin-2-amine]
Second: FC(F)c1cn2c(-c3cccc(N[C@H]4CNCC[C@@H]4F)n3)cnc2cn1 [Compound 25, 6-(6-(difluoromethyl)imidazo[1,2-a]pyrazin-3-yl)-N-((3S,4S)-4-fluoropiperidin-3-yl)pyridin-2-amine]
The Kd of the first is 1.8-fold higher: 0.066 nM for the first, 0.036 nM for the second. The second binds more tightly here.

First: CC(C)(O)c1cn2c(-c3cccc(N[C@@H]4CCCNC4)n3)cnc2cn1 [Compound 30, (R)-2-(3-(6-(piperidin-3-ylamino)pyridin-2-yl)imidazo[1,2-a]pyrazin-6-yl)propan-2-ol]
Second: CC(C)(O)c1cn2c(-c3cccc(N[C@H]4CNCC[C@@H]4F)n3)cnc2cn1 [Compound 31, 2-(3-(6-(((3S,4S)-4-fluoropiperidin-3-yl)amino)pyridin-2-yl)imidazo[1,2-a]pyrazin-6-yl)propan-2-ol]
The Kd of the first is 2.1-fold higher: 0.36 nM for the first, 0.17 nM for the second. The second binds more tightly here.

Going from `FC(F)(F)COc1cn2c(-c3cccc(N[C@@H]4CCNC4)n3)cnc2cn1` [Compound 38, (R)-N-(pyrrolidin-3-yl)-6-(6-(2,2,2-trifluoroethoxy)imidazo[1,2-a]pyrazin-3-yl)pyridin-2-amine] to `F[C@H]1CNC[C@@H]1Nc1cccc(-c2cnc3cnc(C4CC4)cn23)n1` [Compound 50, 6-(6-cyclopropylimidazo[1,2-a]pyrazin-3-yl)-N-((3S,4S)-4-fluoropyrrolidin-3-yl)pyridin-2-amine], the Kd falls from 0.12 nM to 0.015 nM (8-fold).

With `Cn1cc(-c2cn3c(-c4cccc(N[C@H]5CNC[C@@H]5F)n4)cnc3cn2)cn1` [Compound 52, N-((3S,4S)-4-fluoropyrrolidin-3-yl)-6-(6-(1-methyl-1H-pyrazol-4-yl)imidazo[1,2-a]pyrazin-3-yl)pyridin-2-amine] the Kd was 0.011 nM.

— patent US12612410B2 (CHILDREN'S HOSPITAL MEDICAL CENTER, priority 2020, dated 2026)
